The text below walks through data of PubChem BioAssay AID2305 (GlaxoSmithKline (GSK), 2010).

One may read the IC50 as the concentration needed to halve the response being measured.

The test system of this assay is P. falciparum 3D7 growth, pLDH absorbance. Kind of assay: P. falciparum 3D7 growth inhibition, dose response, strain 3D7 (AID 2305).

Values joined by “and” are separate entries in the source; they are usually repeats but may differ in a detail not shown here. Equal entries are not always repeated.

`COc1ccc(C(C(=O)NC2CCN(C[C@H](O)c3ccnc4ccc(OC)cc34)CC2)N2CCN(c3ccc(Cl)c(Cl)c3)CC2)cc1` (stereo partly specified): the IC50 turned out to be 200 nM.

As for `COc1cc2c(cc1OC)C(C(=O)Nc1cc(OC)c(OC)c(OC)c1)C(c1ccc(SC)cc1)N(C)C2=O` (stereo unspecified), the IC50 turned out to be 990 nM.

`CCOC(=O)Nc1cc(-c2csc(N=C(N)N)n2)cc([N+](=O)[O-])c1` showed an IC50 of 820 nM.

The compound `NC1=NC(Cc2ccccc2)(c2ccncc2)C(=O)N1CCCc1ccccc1` (stereo unspecified) had an IC50 of 940 nM.

Compound `O=C(NCCN1CCN(S(=O)(=O)c2ccc(OC3CCNCC3)c(Br)c2)CC1)c1ccc(Cl)c(Cl)c1` registered an IC50 of 890 nM.

In turn, `CCCCCCCc1c(C)[nH]c2ccccc2c1=O` yielded an IC50 of 210 nM.

As to `O=C(NC1CC1)c1ccc(N2CCCC(COc3ccc4c(c3)CCCC4)C2)nc1` (stereo unspecified), the IC50 worked out at 1080 nM.

Compound `CC(=O)N(C)c1cccc(CNc2cc(C)nc(Nc3ccc(C)cc3)n2)c1` displayed an IC50 of 1000 nM.

In the case of `COc1cc(-c2ccccc2)ccc1C(=O)Nc1ccc2c(c1)N(C)CCC2`, the IC50 was determined as 330 nM.

In turn, `Cc1onc(-c2ccccc2Cl)c1C(=O)Nc1cc(Cl)c(Cl)cc1Cl` yielded an IC50 of 1180 nM.

Consider `COc1ccc2nccc([C@@H](O)CN3CCC(NCc4ccc5cccc(O)c5n4)CC3)c2c1`, for which the IC50 came out at 1130 nM.

In the case of `Cc1nc2ccc(NC(=O)Nc3ccnc4ccc(C(F)(F)F)cc34)cc2o1`, the IC50 came out at 910 nM.

In turn, `COc1ccc(NC(=O)c2cc(NC(=O)C3(N)CC3)c(=O)n(Cc3ccc(C(N)=O)cc3)c2)cc1` returned an IC50 of 790 nM.

Compound `O=C(Nc1ccc(OC2CCN(Cc3ccc(F)cc3)CC2)c(Cl)c1)c1ccccc1` yielded an IC50 of 790 nM.

The compound `COC(=O)c1cccc(CNCc2cccc(-c3cccc(-c4nc5ccc(F)cc5[nH]4)c3)c2)c1` registered an IC50 of 130 nM.

In turn, `O=C(N[C@@H](Cc1ccccc1)[C@H](O)CNC1CCCCC1)c1cc(C2CCCC2)cc(N2CCCC2=O)c1` gave an IC50 of 170 nM.

Turning to `CN(C)CCCn1cncc1-c1ccc2ncnc(Nc3ccc(OCc4ccccc4)cc3)c2c1`, the IC50 came out at 520 nM.

In the case of `COc1ccc(CC(=O)NC2CCN(c3ccnc4cc(Cl)ccc34)C2)cc1` (stereo unspecified), the IC50 was 240 nM.

Consider `Cc1cccc(C)c1CNc1ccnc2ccccc12`, for which the IC50 was 1200 nM.

Compound `COc1ccc2nccc([C@@H](O)CN3CCC(NC(=O)/C=C/c4cc(F)cc(NC(C)=O)c4)CC3)c2c1` showed an IC50 of 180 nM.

In turn, `O=C(Nc1ccccc1Cc1ccccc1)c1ccccc1[N+](=O)[O-]` returned an IC50 of 860 nM.

Take `COc1ccc(N2CCN(CCCCNC(=O)c3ccc(NC(=O)c4ccc(C(F)(F)F)cc4)cc3)CC2)c(OC)c1`: the IC50 turned out to be 590 nM.

`CC(C)NCc1cccc(-c2ccc(-c3nc4ccccc4[nH]3)cc2)c1` registered an IC50 of 760 nM.

`C[C@@H](N)C#Cc1cc2c(Nc3ccc(OCc4cccc(F)c4)c(Cl)c3)ncnc2s1` came in with an IC50 of 1060 nM.

In the case of `CCCNCc1ccc(-c2ccc(CN(CCOC)C(=O)CCc3ccc(OC)cc3)cc2)nc1`, the IC50 is 980 nM.

Regarding `COc1ccc2ccccc2c1CCCCN1CCN(CC(c2ccc(F)cc2)N2CCC2)CC1` (stereo unspecified), the IC50 is 760 nM.

As for `CC(=O)Nc1ccc(CN2CCC(NC(=O)c3ccc(-c4cccc(F)c4)s3)CC2)cc1`, the IC50 was 1430 nM.

On to `O=C(Nc1cccc(C(F)(F)F)c1)NC1CCN(c2ccnc3ccccc23)C1` (stereo unspecified), for which the IC50 stood at 290 nM.

Compound `CC(C)CNCc1ccc(-c2cccc(CN(C(=O)CCC3CCCC3)C3CCN(Cc4ccccc4)CC3)c2)cc1` returned an IC50 of 800 nM.

`COc1ccc2cc(C=NNc3nc4ccccc4[nH]3)c(Cl)nc2c1` yielded an IC50 of 650 nM.

For `c1ccc(COc2ccccc2COc2ccccc2-c2ccc3cccnc3n2)cc1`, the IC50 came out at 920 nM.

`CC(Oc1ccc(Cl)cc1Cl)c1nc(-c2ccc(NC(=O)c3ccco3)cc2)no1` (stereo unspecified) registered an IC50 of 900 nM.

On to `Cc1cccc2[nH]c(-c3ccc(-c4cccc(CNCCNC(=O)c5ccnn5C)c4)cc3)nc12`, for which the IC50 worked out at 400 nM.

Take `CN1CCN(c2ccnc3ccc(NC(=O)Cc4ccc(-c5ccncc5)c5ccccc45)cc23)CC1`: the IC50 was 200 nM.

For `O=C(C=Cc1ccc(Cl)c(Cl)c1)NCCCCCN1CCCC(CCCNC(=O)[C@@H]2C[C@H]2c2ccccc2)C1` (stereo partly specified), the IC50 was determined as 1130 nM.

`COc1ccc(-c2ccc(NC(=O)c3ccc(C#N)cc3)cc2)cc1CNC(C)C`: the IC50 amounted to 530 nM.

`COc1cc(CCCOc2c(N)nc(N)nc2N)cc(OC)c1OC`: the IC50 was 1220 nM.

In the case of `O=C(NCCCCCN1CCC(c2c[nH]c3ccccc23)CC1)c1ccc(-c2cccnc2)cc1`, the IC50 was 1030 nM.

In turn, `CN1CCC(Oc2cc(NC(=O)Nc3ccc(-c4ccncc4)c(Cl)c3)ccc2Cl)CC1` yielded an IC50 of 530 nM.

`CSc1c(CNCCCNc2cc(=O)c3ccccc3[nH]2)[nH]c2ccccc12` displayed an IC50 of 1120 nM.

For the compound `CC(C)NC(=O)c1cccc(-c2ccc(OCCN3CCCC3c3cc4ccccc4[nH]3)cc2)c1` (stereo unspecified), the IC50 was determined as 960 nM.

In turn, `O=C(O)c1ccc2nc(-c3ccccn3)c(-c3ccccn3)nc2c1` came in with an IC50 of 220 nM.

The compound `O=C(Nc1cccc(N2CCC(NCc3cccnc3)CC2)c1)c1cccc(C(F)(F)F)c1` gave an IC50 of 970 nM.

Regarding `CCCN(Cc1nnc(-c2ccco2)o1)C(=O)C1CCCN(C(=O)c2ccc(Cl)cc2)C1` (stereo unspecified), the IC50 was determined as 520 nM.

For `CN(c1ccc2c(c1)nc(Nc1ccc(Cl)cc1)n2C)c1ccnc(Nc2ccc(CS(C)(=O)=O)cc2)n1`, the IC50 amounted to 760 nM.

Regarding `COc1cc(NC(=O)c2sc(-c3ccc(Cl)cc3)cc2NC(=O)CN2CC[C@@H](O)C2)ccc1OCCN1CCCC1`, the IC50 is 800 nM.

Regarding `Cc1cc(N[C@@H](CC(C)C)C(=O)Nc2ccccc2)nc(NCc2ccccc2C)n1`, the IC50 turned out to be 780 nM.

As for `Oc1ccc2nc(NCCCc3ccccc3)nc(NCCCc3ccccc3)c2c1`, the IC50 was 400 nM.

With `O=c1cc(NCCCNC2CCCc3c2ccc2ccccc32)[nH]c2ccccc12` (stereo unspecified), the IC50 was 820 nM.

Turning to `O=C(Nc1ccc2c(c1)CCN(C1CCC1)CC2)c1ccc(-c2cn3ccccc3n2)cc1`, the IC50 came to 880 nM.

Regarding `COc1cc2nc(NCCc3ccccc3)nc(N(C)Cc3ccccc3)c2cc1OC`, the IC50 was 830 nM.

For the compound `COC(=O)c1ccc(NC(=O)c2ccc(CCN3CCC(c4nc(COCC(F)(F)F)c(-c5ccc(F)cc5)o4)CC3)cc2)cc1`, the IC50 turned out to be 1040 nM.

In turn, `O=C(C=NO)Nc1ccccc1[N+](=O)[O-]` yielded a half-inhibitory concentration (IC50) of 790 nM.

`OCCCCCCNc1nc(NCc2ccccc2-c2ccc(C(F)(F)F)cc2)nc(N2CCNCC2)n1`: the IC50 is 1440 nM.

`CC(C)(c1ccccc1)c1ccc(O)c(CN2CCOCC2)c1` displayed an IC50 of 980 nM.

With `O=C(/C=C/c1ccc(Cl)c(Cl)c1)NCCCCCCN1CCCN(C(=O)Nc2cc(F)cc(F)c2)CC1`, the IC50 worked out at 710 nM.

The compound `CCOc1cccc2nc(NCCCNCc3ccc(Cl)c(Cl)c3)cc(NCCCNCc3ccc(Cl)c(Cl)c3)c12` gave an IC50 of 570 nM.

The compound `C[C@H]1[C@H](c2cccc(Cl)c2)OCC(C)(C)N1C(=O)CCN1CCCCC1` returned an IC50 of 920 nM.

In turn, `CCCCN(C(=O)c1ccccc1C)c1nnc(-c2ccccc2C)s1` gave an IC50 of 930 nM.

Regarding `COc1cc(C(C)C)ccc1C1CCN(CCCCNC(=O)c2ccc(NC(=O)c3ccc(Cl)cc3)cc2)CC1`, the IC50 was found to be 450 nM.

`CCc1nc2c(cnn2CC)c(NC2CCOCC2)c1CNC(=O)c1ccoc1C` gave an IC50 of 890 nM.

Turning to `CC(C)(C)OC(=O)Cn1cnc2cc(NC(=O)c3cc([N+](=O)[O-])cc([N+](=O)[O-])c3)ccc21`, the IC50 stood at 310 nM.

Compound `CCc1ccc(CN2CCC(NC(=O)c3cc(-c4ccc(N(C)C)cc4)cs3)C2)cc1` (stereo unspecified) gave an IC50 of 1440 nM.

As for `CN1CCC(NCc2cccc(-c3ccc(S(=O)(=O)NCCN4CCCC4)c(F)c3)c2)CC1`, the IC50 was found to be 1010 nM.

Consider `CN(C)CCN(C)Cc1cccc(-c2ccc3c(Nc4ccc(F)cc4Cl)ccnc3c2)c1`, for which the IC50 was 110 nM.

As for `CC(C)c1ccc2[nH]c(C(=O)NC3CCC(N4CCCc5ccc(C#N)cc5C4)CC3)cc2c1` (stereo unspecified), the IC50 was 1090 nM.

As to `COc1ccccc1-c1cc(C(=O)N2CCN(S(=O)(=O)c3ccc(C)cc3)CC2)[nH]n1`, the IC50 is 1160 nM.

The compound `N#Cc1cccc(Nc2ncc3c(-c4cccc(NC(=O)Cc5cccc(Cl)c5)c4)c[nH]c3n2)c1` had an IC50 of 420 nM.

Regarding `O=C(/C=C/c1cccc2ccccc12)NC1CCC(CN2CCC(c3c[nH]c4ccccc34)CC2)CC1` (stereo unspecified), the IC50 is 740 nM and 670 nM.

As for `Cc1nn(CC(C)C)c2sc(C(=O)N3CCN(S(=O)(=O)c4ccc(C#N)cc4)CC3)cc12`, the IC50 worked out at 740 nM.

Regarding `Cc1[nH]c(C)c(-c2ccc(Oc3ccc(Cl)cc3)c(Cl)c2)c(=O)c1Br`, the IC50 was found to be 490 nM.

For `COc1cccc(-c2ccc3c(-c4cccc(S(C)(=O)=O)c4)cnc(N)c3c2)c1`, the IC50 turned out to be 870 nM.

Compound `COc1ccc2nccc([C@@H](O)CN3CCC(NCCNc4ccccn4)CC3)c2c1` returned an IC50 of 740 nM.

The compound `COc1ccc2c(c1)CC(NCc1ccc(-c3ccc4nc[nH]c4c3)cc1)C2` (stereo unspecified) returned an IC50 of 880 nM.

Take `CC[C@H]1CN2CC[C@@H]1C[C@H]2[C@H](O)c1cc(N2CCCC(C)(C)C2)nc2ccc(OC)cc12`: the IC50 amounted to 340 nM.

For the compound `Cc1ccc(-c2nnc(Nc3ccc(CC(N)=O)cc3)c3ccccc23)cc1S(=O)(=O)NCC1CCCO1` (stereo unspecified), the IC50 is 790 nM.

On to `CC(C)C[C@H](NC(=O)c1cc2ccccc2s1)C(=O)N[C@H]1CCN(Cc2ccc(OCCN3CCNCC3)c3ccccc23)C1`, for which the IC50 was determined as 1420 nM.

Compound `CCOc1cc2ccccc2cc1CNCCCCCCNCc1cc2ccccc2cc1OCC` displayed a half-inhibitory concentration (IC50) of 980 nM.

For `CCCCN(CCCC)CCCN(CCCN(CCCC)CCCC)c1cc(C)nc(Nc2ccc3cc(Br)ccc3c2)n1`, the IC50 is 320 nM.

On to `Cc1ccc(F)c(OC2CCN(c3ccc(C(=O)NC4CC4)cn3)CC2)c1`, for which the IC50 is 820 nM.

`FC(F)(F)c1ccc2nccc(NN=Cc3ccc(Cl)cc3)c2c1` returned an IC50 of 790 nM.

`Cc1cc(CNCCCCCCNCc2ccc(-c3ccccc3)cc2)ccc1O` showed an IC50 of 900 nM.

In turn, `COCCCNC(=O)C1CCN(C(c2ccc(Cl)cc2)c2ccc(Cl)cc2)CC1` returned an IC50 of 920 nM.

Take `Cc1c(CNCCCNc2cc(=O)c3ccccc3[nH]2)sc(-c2ccco2)c1Br`: the IC50 worked out at 1020 nM.

Compound `CC1CN(Cc2ccc(-c3cccc(-c4nc5ccc(F)cc5[nH]4)c3)cc2)CC(C)O1` (stereo unspecified) displayed an IC50 of 920 nM.

Compound `Cc1nc2ccc(S(=O)(=O)Nc3ccc(C(=O)N[C@@H](CCC(=O)O)C(=O)O)cc3)cc2c(=O)[nH]1` showed an IC50 of 1010 nM.
